molecular target: T1, SARM1 (50-724) (Homo sapiens, UniProt Q6SZW1); experiment: biochemical
T1 sequence (Q6SZW1 50-724): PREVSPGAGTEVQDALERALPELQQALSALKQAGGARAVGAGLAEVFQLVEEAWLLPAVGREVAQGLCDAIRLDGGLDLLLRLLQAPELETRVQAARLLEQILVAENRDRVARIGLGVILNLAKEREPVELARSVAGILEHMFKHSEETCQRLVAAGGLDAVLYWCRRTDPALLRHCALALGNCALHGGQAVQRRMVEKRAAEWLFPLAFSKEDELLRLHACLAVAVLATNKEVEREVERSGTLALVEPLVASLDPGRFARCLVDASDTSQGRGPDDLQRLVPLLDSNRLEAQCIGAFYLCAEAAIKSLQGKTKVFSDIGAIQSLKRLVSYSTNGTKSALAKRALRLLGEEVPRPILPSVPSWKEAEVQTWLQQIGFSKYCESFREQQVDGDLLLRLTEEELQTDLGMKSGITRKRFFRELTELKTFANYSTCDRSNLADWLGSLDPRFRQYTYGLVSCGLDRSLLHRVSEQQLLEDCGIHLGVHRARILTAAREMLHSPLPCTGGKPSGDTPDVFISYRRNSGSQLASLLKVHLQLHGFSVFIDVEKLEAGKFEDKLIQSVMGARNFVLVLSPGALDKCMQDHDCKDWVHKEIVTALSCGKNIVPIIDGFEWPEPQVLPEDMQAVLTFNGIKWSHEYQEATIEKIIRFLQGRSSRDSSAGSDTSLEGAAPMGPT
Experimental: An enzymatic assay was performed in a 384-well plate using Dulbecco's phosphate-buffered saline (PBS) as the reaction buffer. […] The reaction was initiated by adding a mixture of 200 μM nicotinamide mononucleotide (NMN) as activator and 100 μM NAD^+ as substrate. After 1 h of incubation at room temperature, the reaction was terminated with 10 times volume of 70% acetonitrile, then centrifuged at 3800 rpm for 10 min.

IC50 [nM]	SMILES
500 to 1000	CC(Nc1ccc2ccnn2c1)c1cccc(Cl)c1Cl (racemic) [Example 140, N-(1-(2,3-dichlorophenyl)ethyl)pyrazolo[1,5-a]pyridin-6-amine]
< 100	CC(Nc1ccc2nc[nH]c(=O)c2n1)c1ccc(F)c(Cl)c1Cl (single isomer, unassigned) [Compound 386]
< 100	CC(Nc1cc(F)c2nc[nH]c(=O)c2c1)c1cncc(Cl)c1Cl (racemic) [Compound 354, 6-((1-(4,5-dichloropyridin-3-yl)ethyl)amino)-8-fluoroquinazolin-4(3H)-one]
< 100	CC(Nc1ccc2c(C(F)(F)F)n(CC(N)=O)nc2c1)c1nc(Cl)c(Cl)s1 (single isomer, unassigned) [Compound 367]
100 to 500	COc1cc2cc(NS(=O)(=O)c3cccc(Cl)c3Cl)ccc2cn1 [Compound 89, 2,3-dichloro-N-(3-methoxyisoquinolin-6-yl)benzenesulfonamide]
< 100	CC1Cc2ccc(NS(=O)(=O)c3cccc(Cl)c3Cl)cc2NC1=O (racemic) [Compound 269, 2,3-dichloro-N-(3-methyl-2-oxo-3,4-dihydro-1H-quinolin-7-yl)benzenesulfonamide]
< 100	Cc1c2ccc(NC(C)c3nc(Cl)c(Cl)s3)cc2nn1[C@@H]1CC[C@H](O)C1 (stereo in doubt) [Compound 336, 3-(6-((1-(4,5-dichlorothiazol-2-yl)ethyl)amino)-3-methyl-2H-indazol-2-yl)cyclopentan-1-ol]
100 to 500	COc1nccc2ccc(NC(C)c3nc4c(s3)CN(C(=O)OC(C)(C)C)CC4)cc12 (racemic) [Compound 262, tert-butyl 2-(1-((1-methoxyisoquinolin-7-yl)amino)ethyl)-6,7-dihydrothiazolo[5,4-c]pyridine-5(4H)-carboxylate]
100 to 500	O=S(=O)(Nc1cccc(-c2cnccn2)c1)c1cccc(Cl)c1Cl [Compound 83, 2,3-dichloro-N-(3-pyrazin-2-ylphenyl)benzenesulfonamide]
< 100	CC(Nc1ccc2nc[nH]c(=O)c2n1)c1c(F)ccc(Cl)c1Cl (single isomer, unassigned) [Compound 387]
< 100	Cc1c(Br)cccc1S(=O)(=O)Nc1ccc2c(c1)C(=O)NCC2 [Compound 13, 3-bromo-2-methyl-N-(1-oxo-1,2,3,4-tetrahydroisoquinolin-7-yl)benzenesulfonamide]
> 1000	O=S(=O)(Nc1ccc2ccccc2n1)c1cccc(Cl)c1Cl [Compound 60, 2,3-dichloro-N-(quinolin-2-yl)benzenesulfonamide]
100 to 500	O=c1[nH]cnc2ccc(NS(=O)(=O)c3cccc(Cl)c3Cl)cc12 [Compound 23, 2,3-dichloro-N-(4-oxo-3,4-dihydroquinazolin-6-yl)benzenesulfonamide]
100 to 500	CC(Nc1ccc2c(c1)NC(=O)CC2)c1nc(Cl)c(Cl)s1 (racemic) [Compound 230, 7-[1-(4,5-dichlorothiazol-2-yl)ethylamino]-3,4-dihydro-1H-quinolin-2-one]
< 100	CCC(Nc1ccc2c(Cl)n[nH]c(=O)c2c1)c1nc(Cl)c(Cl)s1 (racemic) [Example 254, 4-chloro-7-[1-(4,5-dichlorothiazol-2-yl)propylamino]-2H-phthalazin-1-one]
> 1000	CC(Nc1ccc2ccccc2n1)c1cccc(Cl)c1Cl (racemic) [Example 134, N-(1-(2,3-dichlorophenyl)ethyl)quinolin-2-amine]
> 1000	CC(Nc1ccc2nc[nH]c(=O)c2c1)c1c(Cl)ccc(F)c1Cl (single isomer, unassigned) [Example 201A]
500 to 1000	CC(Nc1ccc2cc[nH]c(=O)c2c1)c1cc(Cl)cnc1Cl (racemic) [Example 122, 7-((1-(2,5-dichloropyridin-3-yl)ethyl)amino)isoquinolin-1(2H)-one]
< 100	CC(=O)NC1CCCc2ccc(NS(=O)(=O)c3cccc(Cl)c3Cl)cc21 (racemic) [Compound 283, N-(7-((2,3-dichlorophenyl)sulfonamido)-1,2,3,4-tetrahydronaphthalen-1-yl)acetamide]
100 to 500	CC(Nc1ccc2c(c1)C(=O)NCC2)c1cc(F)cc(Cl)c1 (racemic) [Example 101, 7-((1-(3-chloro-5-fluorophenyl)ethyl)amino)-3,4-dihydroisoquinolin-1(2H)-one]
100 to 500	CCC(C(N)=O)c1ccc(NS(=O)(=O)c2cccc(Cl)c2Cl)cc1 (single isomer, unassigned) [Compound 270A]

IC50 [nM]	SMILES
100 to 500	Clc1cccc(C(Nc2ccc3cccnc3c2)C2CCC2)c1Cl (stereo not drawn) [Example 179, N-(cyclobutyl(2,3-dichlorophenyl)methyl)quinolin-7-amine]
100 to 500	CC(Nc1ccc2cc[nH]c(=O)c2c1)c1cccc(F)c1Cl (racemic) [Example 139, 7-((1-(2-chloro-3-fluorophenyl)ethyl)amino)isoquinolin-1(2H)-one]
> 1000	Cc1c(F)cccc1S(=O)(=O)Nc1cccc(N2CCN(C)C2=O)c1 [Compound 28, 3-fluoro-2-methyl-N-(3-(3-methyl-2-oxoimidazolidin-1-yl)phenyl)benzenesulfonamide]
< 100	CC(Nc1ccc2cc[nH]c(=O)c2n1)c1cc(F)cc(Cl)c1Cl (racemic) [Example 205, 2-((1-(2,3-dichloro-5-fluorophenyl)ethyl)amino)-1,7-naphthyridin-8(7H)-one]
< 100	CC(Nc1ccc2nc[nH]c(=O)c2n1)c1c(Cl)ccc(F)c1Cl (racemic) [Compound 259, 6-((1-(2,6-dichloro-3-fluorophenyl)ethyl)amino)pyrido[3,2-d]pyrimidin-4(3H)-one]
< 100	CC(Nc1nc2ccccc2s1)c1nc(Cl)c(Cl)s1 (racemic) [Compound 344, N-(1-(4,5-dichlorothiazol-2-yl)ethyl)benzo[d]thiazol-2-amine]
< 100	CC1(C)C(=O)N(Cc2ccncc2)c2cc(NS(=O)(=O)c3cccc(Cl)c3Cl)ccc21 [Compound 309, 2,3-dichloro-N-(3,3-dimethyl-2-oxo-1-(pyridin-4-ylmethyl)indolin-6-yl)benzenesulfonamide]
> 1000	Cc1n[nH]c(=O)c2cc(NC(C)c3nc(Cl)c(Cl)s3)ccc12 (single isomer, unassigned) [Example 239B]
< 100	CC(Nc1ccc2cc[nH]c(=O)c2c1)c1c(Cl)ccc(Cl)c1Cl (racemic) [Compound 185, 7-((1-(2,3,6-trichlorophenyl)ethyl)amino)isoquinolin-1(2H)-one]
500 to 1000	Cc1n[nH]c(=O)c2cc(N[C@H](C)c3c(Cl)ccc(F)c3Cl)ccc12 (single isomer, unassigned) [Example 237A]
< 100	CC1(C)C(=O)N(CC(=O)NCCO)c2cc(NS(=O)(=O)c3cccc(Cl)c3Cl)ccc21 [Example 287, 2-(6-((2,3-dichlorophenyl)sulfonamido)-3,3-dimethyl-2-oxoindolin-1-yl)-N-(2-hydroxyethyl)acetamide]
> 1000	CC(Nc1ccc2c(C(F)(F)F)n(CC(N)=O)nc2c1)c1nc(Cl)c(Cl)s1 (single isomer, unassigned) [Compound 368]
< 100	CC1(C)CNc2cc(NS(=O)(=O)c3cccc(Cl)c3Cl)ccc21 [Compound 219, 2,3-dichloro-N-(3,3-dimethylindolin-6-yl)benzenesulfonamide]
> 1000	[2H]C(C)(Nc1ccc2c(C)n(CC(N)=O)nc2c1)c1nc(Cl)c(Cl)s1 (single isomer, unassigned) [Compound 378]
> 1000	CC1CN(S(=O)(=O)Nc2ccc3c(c2)C(=O)NCC3)CC(C)O1 (stereo not drawn) [Example 165, 2,6-dimethyl-N-(1-oxo-1,2,3,4-tetrahydroisoquinolin-7-yl)morpholine-4-sulfonamide]
< 100	CC1(C)C(=O)N(CCCC(N)=O)c2cc(NS(=O)(=O)c3cccc(Cl)c3Cl)ccc21 [Compound 280, 4-(6-((2,3-dichlorophenyl)sulfonamido)-3,3-dimethyl-2-oxoindolin-1-yl)butanamide]
100 to 500	CC(Nc1ccc2ccn(C)c(=O)c2c1)c1cncc(Cl)c1Cl (racemic) [Compound 184, 7-((1-(4,5-dichloropyridin-3-yl)ethyl)amino)-2-methylisoquinolin-1(2H)-one]
< 100	CC(Nc1ccc2c(c1)N(CCO)C(=O)C2(C)C)c1nc(Cl)c(Cl)s1 (racemic) [Compound 277, 6-((1-(4,5-dichlorothiazol-2-yl)ethyl)amino)-1-(2-hydroxyethyl)-3,3-dimethylindolin-2-one]
< 100	O=S(=O)(Nc1ccc(Cc2cncs2)cc1)c1cccc(Cl)c1Cl [Compound 251, 2,3-dichloro-N-(4-(thiazol-5-ylmethyl)phenyl)benzenesulfonamide]
> 1000	Cc1cc(F)cc(C(C#N)Nc2ccc3c(c2)C(=O)NCC3)c1 (stereo not drawn) [Example 173, 2-(3-fluoro-5-methylphenyl)-2-((1-oxo-1,2,3,4-tetrahydroisoquinolin-7-yl)amino)acetonitrile]
> 1000	Cc1ccc(S(=O)(=O)Nc2ccc3c(c2)C(=O)NCC3)c(C)c1 [Example 3A, 2,4-dimethyl-N-(1-oxo-1,2,3,4-tetrahydroisoquinolin-7-yl)benzenesulfonamide]

From patent US20250320184A1 (SIRONAX LTD., priority 2022, published 2025)
